{
  "source": "patent US9642829B2",
  "about": "“Antifungal compound and uses thereof” (The University of Hong Kong, priority 2012, dated 2017)",
  "key": {"C. glabrata biofilms": {"test_system": "C. glabrata biofilms", "test": "Mono species Candida biofilm MIC, XTT assay", "assay_type": "cell-based", "conditions": "48 h C. glabrata biofilms", "description": "(§1) For instance, we have previously shown the resistance of Candida biofilms against amphotericin and caspofungin. Therefore, next using standard biofilm assays we have established in our laboratory, we examined the effect of SM21 against Candida biofilms. In brief, Candida cells were grown in SDA medium at 37° C. for 18 h. Then a loopful of the yeast was inoculated into the yeast nitrogen base (YNB; Difco) medium supplemented with 50 mM glucose in a rotary shaker at 75 rpm. After overnight broth culture, the yeasts were harvested in the late exponential growth phase and washed twice with 20 ml of phosphate buffer saline (PBS; pH 7.2. 0.1 M) prior to use in the biofilm studies. Candida biofilms were developed according to a previously published protocol. In brief, washed yeast cells were resuspended in YNB supplemented with 100 mM glucose and adjusted to an optical density of 0.38 at 520 nm (1×10^7 cells/ml). The standard cell suspension was used immediately to develop biofilms on commercially available presterilized, polystyrene, 96-well plate (IWAKI, Tokyo, Japan). At first, 100 μl of standardized cell suspension (1×10^7 cells/ml) was pipetted into each well of a microtiter plate and incubated for 1.5 h at 37° C. in a shaker at 75 rpm to permit yeast adherence to the well surface (adherence phase). For controls, a well of each microtiter plate was handled in an identical fashion except that no Candida suspension was added. Following the adhesion phase, the cell suspensions were aspirated, and each well washed with 100 μl of PBS to remove loosely adherent cells. 200 μl of YNB with 100 mM glucose were then pipetted into each of the washed wells and the plates incubated at 37° C. in a shaker at 75 rpm for 24 or 48 h. After biofilm growth phase microscopic examination of the cultures were performed to rule out contamination. Then, the suspending medium was aspirated and biofilms were washed with 100 μl PBS to remove the nonadherent cells. The stock solutions were diluted twofold with RPMI 1640 supplemented with 2% glucose to obtain SM21 concentration from 100 to 0.2 μg/ml drug concentrations. In parallel, other antifungal agents such as caspofungin (100 to 0.1 μg/ml) and amphotericin B (240 μg/ml to 0.225 μg/ml) was also prepared as describe above. A total of 100 μl of drug solution was added to the microtiter plate containing Candida biofilms. Biofilms were then incubated at 37° C. for 24 h with the antifungals and afterwards metabolic activity of fungal cells was determined by the XTT [2,3-bis(2-methoxy-4-nitro-5-sulfophenyl)-2H-tetrazolium-5-carboxanilide sodium salt] assay (17, 28). Candida biofilm MIC90 was defined as the lowest drug concentration with 90% reduction in opacity compared with the drug free control. Each experiment was repeated three times with four replicates."}, "C. krusei biofilms": {"test_system": "C. krusei biofilms", "test": "Mono species Candida biofilm MIC, XTT assay", "assay_type": "cell-based", "conditions": "48 h C. krusei biofilms", "description": "as §1"}, "[1]": {"test_system": "Candida albicans invasion of human oral keratinocytes", "test": "Candida-human oral keratinocytes co-culture model", "assay_type": "cell-based", "conditions": "1×10^4 cells/ml C. albicans with human oral keratinocytes, 24-h incubation", "description": "We also examined the ability of SM21 to inhibit invasion of Candida albicans in Candida-human oral keratinocytes co-culture model. Primary human oral keratinocytes (ScienCell Research Laboratories™, Carlsbad, Calif., USA) at passage two were cultured using Defined Keratinocyte-Serum Free Medium (Gibco, Grand Island, N.Y., USA) which contained 0.2% Defined Keratinocyte-SFM Growth Supplement (Gibco) and 1% penicillin/streptomycin solution. Cells were incubated at 37° C. in a humidified atmosphere with 5% CO2 and 95% air. Yeast cells for inoculation were cultured for 24 h at 37° C. on Sabouraud dextrose agar (Difco, Hampshire, England). A sample of the culture was washed thrice in PBS and an inoculum of approximately 2×10^5 cells was suspended in 10 ml of YPG medium (1% yeast extract, 2% peptone and 2% glucose; Difco, Detroit, Mich.). The suspension was cultured for 18 h at 37° C. with orbital shaking and the cells were harvested, washed in 0.9% NaCl and a sample of cells was resuspended in fresh medium in a shaker for 24 h at 37° C. Afterwards the cells were harvested by centrifuge and the inocula were prepared in phosphate buffered saline (PBS, pH 7.2). Human oral keratinocytes were grown to 80-90% confluence in u-Slide 8-well plates (ibidi GmbH Integrated BioDiagnostics, Martinsried, Germany). […]"}, "Vero cell line": {"test_system": "Vero cell line", "test": "Cytotoxicity assay", "assay_type": "cell-based", "conditions": "at effective concentration"}, "C. albicans biofilms": {"test_system": "C. albicans biofilms", "test": "Mono species Candida biofilm MIC, XTT assay", "assay_type": "cell-based, Candida albicans", "description": "as §1"}, "[2]": {"test_system": "C. albicans, C. glabrata, C. krusei, C. tropicalis, C. parapsilosis, C. neoformans, Aspergillus fumigates and Penicillium marneffei", "test": "Antifungal activity against wide range of fungal species (summary)", "assay_type": "cell-based", "conditions": "range over fungal species", "description": "Antifungal activity of the small molecules was evaluated using USA standards, Clinical and Laboratory Standards Institute (CLSI) criteria. In brief, inocula from 24 h Candida cultures on Sabourauds's dextore agar were standardized to a turbidity equivalent of 0.5 McFarland standards at 520 nm with a spectrophotometer. The suspensions were further diluted in Rosewell Park Memorial Institute (RPMI) 1640 medium (Life technologies, New York, USA) to yield an inoculum concentration of approximately 0.5 1×10^3 to 2.5 1×10^3 cells/ml. Minimum inhibitory concentration (MIC) and minimum fungicidal concentration (MFC) assay was performed in 96-well plates (Iwaki, Tokyo, Japan) and each of the Candida species was exposed to a double dilution of SM21. Amphotericin B was used as a positive control. All the experiments were preformed three occasions with duplicates for all isolates. The plates were incubated at 35° C. for 48 h to evaluate MIC. In the case of Cryotococcus neoformans, reading were taken after 72 h. Aforementioned assay was performed for C. albicans ATCC 90028, C. albicans SC5314 and 10 C. albicans clinical isolates. Moreover, MIC/MFC determination was carried out for other fungal species such as C. glabrata, C. krusei, C. tropicalis, C. parapsilosis, C. neoformans, Aspergillus fumigates and Penicillium marneffei. […]"}},
  "data": [
    {"smiles": "CN(C)c1ccc(/C=C/c2cc(C(C)(C)C)[o+]c(C(C)(C)C)c2)cc1.[O-][Cl+3]([O-])([O-])[O-]", "note": "[SM21]", "values": [
      {"measurement": "Minimum inhibitory concentration of 48 h Candida biofilms", "setting": "C. glabrata biofilms", "value": 25, "unit": "µg/mL"},
      {"measurement": "Minimum inhibitory concentration of 48 h Candida biofilms", "setting": "C. krusei biofilms", "value": 25, "unit": "µg/mL"},
      {"measurement": "Protection of keratinocytes from C. albicans invasion (LIVE/DEAD, confocal)", "setting": "[1]", "value": "able to prevent the epithelial cell damage"},
      {"measurement": "Cytotoxicity", "setting": "Vero cell line", "value": "no cytotoxicity"},
      {"measurement": "Biofilm MIC90", "setting": "C. albicans biofilms; 24 h C. albicans biofilms, 24 h drug exposure, XTT", "value": 3.2, "unit": "µg/mL"},
      {"measurement": "Minimum inhibitory concentration of 48 h Candida biofilms", "setting": "C. albicans biofilms; 48 h C. albicans biofilms", "value": 25, "unit": "µg/mL"},
      {"measurement": "Concentration with antifungal activity against wide range of fungal species", "setting": "[2]", "value": "0.2 to 6.25", "unit": "µg/mL"}
    ]}
  ]
}
